# Laboratory results reported in PubChem BioAssay AID1259407 (Chemical Carcinogenesis Research Information System (CCRIS), 2018).
# The source made the active and inactive calls. No rule for the calls is given here.
# System: CCRIS mutagenicity, Ames/micronucleus/aberration tests
# Assay: CCRIS mutagenicity studies
# [1] = Test System: AMES SALMONELLA TYPHIMURIUM, Strain/Indicator: TA98, Metabolic Activation: NONE, Method: STANDARD PLATE
# [2] = Test System: AMES SALMONELLA TYPHIMURIUM, Strain/Indicator: TA98, Metabolic Activation: RAT, LIVER, S-9, AROCLOR 1254, Method: STANDARD PLATE
# [3] = Test System: AMES SALMONELLA TYPHIMURIUM, Strain/Indicator: TA100, Metabolic Activation: NONE, Method: STANDARD PLATE
# [4] = Test System: AMES SALMONELLA TYPHIMURIUM, Strain/Indicator: TA100, Metabolic Activation: RAT, LIVER, S-9, AROCLOR 1254, Method: STANDARD PLATE
# [5] = Test System: AMES SALMONELLA TYPHIMURIUM, Strain/Indicator: TA1535, Metabolic Activation: NONE, Method: STANDARD PLATE
# [6] = Test System: AMES SALMONELLA TYPHIMURIUM, Strain/Indicator: TA1535, Metabolic Activation: RAT, LIVER, S-9, AROCLOR 1254, Method: STANDARD PLATE
# [7] = Test System: AMES SALMONELLA TYPHIMURIUM, Strain/Indicator: TA1537, Metabolic Activation: NONE, Method: STANDARD PLATE
# [8] = Test System: AMES SALMONELLA TYPHIMURIUM, Strain/Indicator: TA1537, Metabolic Activation: RAT, LIVER, S-9, AROCLOR 1254, Method: STANDARD PLATE
# [9] = Test System: AMES SALMONELLA TYPHIMURIUM, Strain/Indicator: TA1538, Metabolic Activation: NONE, Method: STANDARD PLATE
# [10] = Test System: AMES SALMONELLA TYPHIMURIUM, Strain/Indicator: TA1538, Metabolic Activation: RAT, LIVER, S-9, AROCLOR 1254, Method: STANDARD PLATE
Structure (SMILES),mutagenic call [1],mutagenic call [2],mutagenic call [3],mutagenic call [4],mutagenic call [5],mutagenic call [6],mutagenic call [7],mutagenic call [8],mutagenic call [9],mutagenic call [10],other results
O=C(O)c1cc(=O)c2c(OCC(O)COc3cccc4oc(C(=O)O)cc(=O)c34)cccc2o1,inactive; negative,inactive; negative,inactive; negative,inactive; negative,inactive; negative,inactive; negative,inactive; negative,inactive; negative,inactive; negative,inactive; negative,"mutagenic call (Test System: AMES SALMONELLA TYPHIMURIUM, Strain/Indicator: TA97, Metabolic Activation: HAMSTER, LIVER, S-9, AROCLOR 1254, Method: STANDARD PLATE): inactive; negative; mutagenic call (Test System: AMES SALMONELLA TYPHIMURIUM, Strain/Indicator: TA97, Metabolic Activation: NONE, Method: STANDARD PLATE): inactive; negative; mutagenic call (Test System: AMES SALMONELLA TYPHIMURIUM, Strain/Indicator: TA97, Metabolic Activation: RAT, LIVER, S-9, AROCLOR 1254, Method: STANDARD PLATE): inactive; negative; mutagenic call (Test System: AMES SALMONELLA TYPHIMURIUM, Strain/Indicator: TA98, Metabolic Activation: HAMSTER, LIVER, S-9, AROCLOR 1254 (2.5-20%), Method: STANDARD PLATE): inactive; negative; mutagenic call (Test System: AMES SALMONELLA TYPHIMURIUM, Strain/Indicator: TA98, Metabolic Activation: HAMSTER, LIVER, S-9, AROCLOR 1254, Method: STANDARD PLATE): inactive; negative; mutagenic call (Test System: AMES SALMONELLA TYPHIMURIUM, Strain/Indicator: TA98, Metabolic Activation: RAT, LIVER, S-9, AROCLOR 1254 (2.5-20%), Method: STANDARD PLATE): inactive; negative; mutagenic call (Test System: AMES SALMONELLA TYPHIMURIUM, Strain/Indicator: TA100, Metabolic Activation: HAMSTER, LIVER, S-9, AROCLOR 1254, Method: STANDARD PLATE): inactive; negative; mutagenic call (Test System: AMES SALMONELLA TYPHIMURIUM, Strain/Indicator: TA1535, Metabolic Activation: HAMSTER, LIVER, S-9, AROCLOR 1254, Method: STANDARD PLATE): inactive; negative; mutagenic call (Test System: AMES SALMONELLA TYPHIMURIUM, Strain/Indicator: TA1537, Metabolic Activation: HAMSTER, LIVER, S-9, AROCLOR 1254, Method: STANDARD PLATE): inactive; negative; mutagenic call (Test System: AMES SALMONELLA TYPHIMURIUM, Strain/Indicator: TA1538, Metabolic Activation: HAMSTER, LIVER, S-9, AROCLOR 1254 (2.5-20%), Method: STANDARD PLATE): inactive; negative; mutagenic call (Test System: AMES SALMONELLA TYPHIMURIUM, Strain/Indicator: TA1538, Metabolic Activation: HAMSTER, LIVER, S-9, AROCLOR 1254, Method: STANDARD PLATE): inactive; negative; mutagenic call (Test System: AMES SALMONELLA TYPHIMURIUM, Strain/Indicator: TA1538, Metabolic Activation: RAT, LIVER, S-9, AROCLOR 1254 (2.5-20%), Method: STANDARD PLATE): inactive; negative; mutagenic call (Test System: MOUSE LYMPHOMA, Strain/Indicator: L5178Y (TK+/TK-), Metabolic Activation: NONE, Method: SUSPENSION/PLATE): inactive; negative; reevaluation of results: negative; mutagenic call (Test System: MOUSE LYMPHOMA, Strain/Indicator: L5178Y (TK+/TK-), Metabolic Activation: RAT, LIVER, S-9, AROCLOR 1254, Method: SUSPENSION/PLATE): inactive; negative. reevaluation of results: negative"
Nc1snc2cc(Cl)ccc12,inactive; negative,,inactive; negative,,inactive; negative,,inactive; negative,,,,"mutagenic call (Test System: AMES SALMONELLA TYPHIMURIUM, Strain/Indicator: TA98, Metabolic Activation: S-9, Method: STANDARD PLATE): inactive; negative; mutagenic call (Test System: AMES SALMONELLA TYPHIMURIUM, Strain/Indicator: TA100, Metabolic Activation: S-9, Method: STANDARD PLATE): active; positive; mutagenic call (Test System: AMES SALMONELLA TYPHIMURIUM, Strain/Indicator: TA1535, Metabolic Activation: S-9, Method: STANDARD PLATE): inactive; negative; mutagenic call (Test System: AMES SALMONELLA TYPHIMURIUM, Strain/Indicator: TA1537, Metabolic Activation: S-9, Method: STANDARD PLATE): active; positive"
Oc1cc2c3ccccc3ccc2c2ccccc12,inactive; negative,inactive; negative,inactive; negative,,,,,,,,
C=CC(=O)OCC(C)(C)C,inactive; negative,inactive; negative,inactive; negative,inactive; negative,inactive; negative,inactive; negative,inactive; negative,inactive; negative,inactive; negative,inactive; negative,"mutagenic call (Test System: AMES SALMONELLA TYPHIMURIUM, Strain/Indicator: TA98, Metabolic Activation: RAT, LIVER, S-9, SODIUM PHENOBARBITAL, Method: STANDARD PLATE): inactive; negative; mutagenic call (Test System: AMES SALMONELLA TYPHIMURIUM, Strain/Indicator: TA100, Metabolic Activation: RAT, LIVER, S-9, SODIUM PHENOBARBITAL, Method: STANDARD PLATE): inactive; negative; mutagenic call (Test System: AMES SALMONELLA TYPHIMURIUM, Strain/Indicator: TA1535, Metabolic Activation: RAT, LIVER, S-9, SODIUM PHENOBARBITAL, Method: STANDARD PLATE): inactive; negative; mutagenic call (Test System: AMES SALMONELLA TYPHIMURIUM, Strain/Indicator: TA1537, Metabolic Activation: RAT, LIVER, S-9, SODIUM PHENOBARBITAL, Method: STANDARD PLATE): inactive; negative; mutagenic call (Test System: AMES SALMONELLA TYPHIMURIUM, Strain/Indicator: TA1538, Metabolic Activation: RAT, LIVER, S-9, SODIUM PHENOBARBITAL, Method: STANDARD PLATE): inactive; negative"
